Data from patent US11899025B2, “Pharmaceutical composition for preventing or treating neurodegenerative diseases comprising COX2 acetylating agent as active ingredient” (KYUNGPOOK NATIONAL UNIVERSITY INDUSTRY-ACADEMIC COOPERATION …, priority 2018, dated 2024).

Assays:
[1] = test system: APP/PS1 neurons; experiment: neuroinflammatory resolution factor (SPMs) secretion in APP/PS1 neurons after COX2 acetylating agent treatment; type: cell-based, mouse; conditions: 10 nM; FIG. 8b
Method: A commercially available ELISA kit (Biosource) was used, and the hemispheres of mice were homogenized and placed in a buffer containing 0.02M guanidine to prepare a sample for Aβ ELISA. In order to measure the neuroinflammatory resolution factor, conditioned media (CM) was prepared after culturing neurons from mouse cerebrum. Thereafter, according to the manufacturer's manual, ELISA for Aβ and SPM was performed.
(§1) In order to measure the neuroinflammatory resolution factor, after culturing neurons from mouse cerebrum, CM was prepared by treatment with 10 nM N-acetyl sphingosine 1 phosphate (Toronto Research chemicals, C262710) and N-acetyl sphingosine (Sigma, 01912). For COX2 acetylation analysis, neurons were cultured from mouse cerebrum and then treated with 2 uCi [^14C]N-acetyl sphingosine (ARC, ARC1024). In addition, for in vivo experiments, 7-month-old APP/PS1 mice were injected with 5 mg/kg N-acetyl sphingosine (Sigma, 01912), 1 mg/kg FTY720 and 3 uM S1P daily for 4 weeks via intraperitoneal injection. 1 month-old NPC mice were injected with 5 mg/kg N-acetyl sphingosine (Sigma, 01912) and 2-month-old FUS mice with 30 mg/kg N-acetyl sphingosine (Sigma, 01912) daily for 4 weeks via subcutaneous injection.
First, in order to confirm whether the selected compounds promote the secretion of neuroinflammatory resolution factor in neurons, after treatment with N-acetyl sphingosine 1 phosphate or N-acetyl sphingosine in APP/PS1 neurons, the expression levels of neuroinflammatory resolution factor were confirmed. As a result, it was confirmed that the expression levels of LxA4 and RvE1 in neurons of APP/PS1 mice were recovered when treated with N-acetyl sphingosine 1 phosphate or N-acetyl sphingosine (FIG. 8b).

[2] = target: T1, COX2 (Homo sapiens, UniProt P35354); experiment: LC-MS/MS identification of the COX2 acetylation site; type: biochemical; conditions: FIG. 8d
T1 sequence (P35354 18-604): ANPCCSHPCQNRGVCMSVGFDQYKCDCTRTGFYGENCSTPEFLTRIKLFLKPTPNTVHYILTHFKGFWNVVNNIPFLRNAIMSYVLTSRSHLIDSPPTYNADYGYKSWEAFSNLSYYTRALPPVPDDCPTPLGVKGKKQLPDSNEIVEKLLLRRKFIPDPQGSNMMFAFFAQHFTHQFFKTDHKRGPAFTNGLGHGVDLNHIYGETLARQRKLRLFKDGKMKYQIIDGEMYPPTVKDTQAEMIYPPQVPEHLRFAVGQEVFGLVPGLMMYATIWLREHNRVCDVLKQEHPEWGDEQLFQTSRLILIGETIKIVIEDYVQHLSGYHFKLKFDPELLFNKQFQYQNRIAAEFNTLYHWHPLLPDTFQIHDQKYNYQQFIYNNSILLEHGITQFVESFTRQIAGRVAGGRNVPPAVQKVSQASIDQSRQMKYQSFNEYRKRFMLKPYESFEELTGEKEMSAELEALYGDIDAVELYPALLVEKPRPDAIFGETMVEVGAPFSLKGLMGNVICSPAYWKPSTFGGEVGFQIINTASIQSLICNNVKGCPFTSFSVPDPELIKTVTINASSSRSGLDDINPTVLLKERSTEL
Method: To confirm the acetylation site of COX2, the COX2 enzyme was precipitated with trichroloacetic acid (Merck) and dried. The dried extract was resuspended in 10 μL of 5M urea solution, and 0.1M ammonium bicarbonate buffer was incubated at 37° C. with 1 μg trypsin (Promega) for 16 hours. Then, the sample was treated with 1M DTT (GE Healthcare) at room temperature for 1 hour and then alkylated with 1M iodoacetamide (Sigma) for 1 hour. Protein samples were loaded onto a ZORBAX 300SB-C18 column for sequencing. Peptides were identified with BioTools 3.2 SR5 (Bruker Daltonics).
In addition, it was confirmed that serine 565 (S565) against the COX2 peptide 560-[…]-575 was acetylated in the presence of N-acetyl sphingosine (FIG. 8d).

[3] = test system: APP/PS1 mice; experiment: Alzheimer's animal model (APP/PS1 mice): immunofluorescence, Thioflavin S, Morris Water Maze; type: in vivo, mouse; conditions: 7-month-old APP/PS1 mice, 5 mg/kg N-acetyl sphingosine, 1 mg/kg FTY720 or 3 uM S1P daily for 4 weeks, intraperitoneal
From the text: It has been approved for mouse experiments by the Kyungpook National University Institutional Animal Care and Use Committee (IACUC). A transgenic mouse line overexpressing APPswe (hAPP695swe) or PS1 (presenilin-1M146V) based on C57BL/6 mice (Charles River, UK) was used. [Hereinafter, APP mouse: mouse overexpressing APPswe, PS1 mouse: mouse overexpressing presenilin-1M146V; GlaxoSmithKline]. As an Alzheimer's (AD) animal model, SphK1 tg (SphK1 gene overexpressing mouse) was crossed with APP mice and APP/PS1 mice to prepare APP/PS1/SphK1 tg mice. Niemanpick (NP-C) animal model, Balb/C (Orient, Wild type), NPC mutant mouse lacking NPC1 gene (Provided by Riken, Japan, NP-C mice; less weight than normal mice of the same age, and severe motor function loss from 4 to 6 weeks of age, limb tremors and seizures appear, and lifespan is approximately 9 to 10 weeks. Is) was used. As an animal model for amyotrophic lateral sclerosis (ALS), a transgenic mouse (FUS) line overexpressing RUS R521C based on C57BL/6 mice (Charles River, UK) was used.
After fixing the cerebral and hippocampus of the mouse, anti-20G10 (mouse, 1:1000) against amyloid-β (Aβ) 42 and anti-G30 (rabbit, 1:1000) against Aβ 40, anti-MAP2 (chicken, 1:2000), anti-Synaptophysin (mouse, 1:100), anti-Synapsin1 (rabbit, 1:500), anti-PSD95 (mouse, 1:100), anti-Iba-1 (rabbit, 1:500), Anti-GFAP (rabbit, 1:500) was cultured together. The site was analyzed using a laser scanning confocal microscope or Olympus BX51 microscope equipped with Fluoview SV1000 imaging software (Olympus FV1000, Japan). Metamorph software (Molecular Devices) was used to quantify the percentage of the area of the stained area relative to the area of the total tissue.
In order to confirm the potential effect on learning and memory, MWM (Morris water maze) and fear conditioning experiments were performed. MWM learned the task 4 times a day for 10 days for the mice, the platform was removed on the 11th day, and a probe trial was performed. On the first day of Fear conditioning, the mice were placed in a conditioning chamber, and sound stimulation (10 kHz, 70 dB) and electrical stimulation (0.3 mA, 1 s) were given. On the second day, memory for the space was checked without stimulation in the same conditioning chamber as on the first day, and on the third day, a memory test for fear was performed when only sound stimulation was given in another conditioning chamber. An open field test was performed to evaluate motor ability and immediate activity. In the open field test, the mice were placed in a square box for 10 minutes to measure the overall exercise power, time, and distance.
as §1
The present inventors confirmed AD lesions by injecting N-acetyl sphingosine, one of the COX2 acetylating agents identified through the above experiment, into an APP/PS1 animal model. First, in order to determine the effect of N-acetyl sphingosine on the neuroinflammatory response by secreting neuroinflammatory resolution factor, changes in microglia and astrocytes were observed. […]

## CCCCCCCCCCCCC/C=C/[C@@H](O)[C@H](CO)NC(C)=O [N-acetyl sphingosine]
[1]
  expression level of LxA4 in neurons of APP/PS1 mice: recovered
  expression level of RvE1 in neurons of APP/PS1 mice: recovered
[2]
  acetylation of serine 565 (S565) of COX2 peptide 560-GCPFTSFSVPDPELIK-575: acetylated
[3]; FIG. 9a
  microglia (Iba1) in brain cortex vs APP/PS1 mice: remarkable decrease
[3]; FIG. 9b
  astrocytes (GFAP) in brain cortex vs APP/PS1 mice: remarkable decrease
[3]; FIG. 9c
  amount of Aβ / Aβ deposition (Thioflavin S) vs APP/PS1 mice: significantly lower
[3]; FIG. 9d
  memory and cognition (Morris Water Maze) vs APP/PS1 mice: improved
